# Results as given in patent US4375478A, “Aminobenzoic acid derivatives” (Abbott Laboratories, priority 1982, dated 1983).
# Tests used:
# [1] = test system: acyl-coenzyme A:cholesterol acyl transferase (ACAT); conditions: 1.0×10^-4 M; cited from earlier work
# [2] = test system: acyl-coenzyme A:cholesterol acyl transferase (ACAT); test: Acyl-coenzyme A:cholesterol acyl transferase (ACAT) assay in vitro, liver microsomal protein, cholesterol oleate formation; format: biochemical; conditions: for ACAT inhibition: 1.0×10^-4 M; for Cholesterol Oleate CPM + S.D. / Cholesterol Oleate Inhibition Percent: 1.0 × 10^-4 M, Ethanol
# Protocol: Test Compound (final concentration=1.0×10^-4 M) and 120 mcg of liver microsomal protein were preincubated for 5 minutes at 37° C. in 0.1 M phosphate buffer, pH 7.4, containing 6.0×10^-5 M bovine serum albumin and 0.002 M dithiothreitol (final volume=0.189 ml). Oleoyl-1-^14 C-coenzyme A, dissolved in buffer, was added in a volume of 0.011 ml so that the final concentration was 6.0×10^-5 M at a specific activity of 10.8 mCi/mmol (0.11 u Ci/tube). After incubation at 37° C. for 10 minutes, the reaction was stopped with the addition of 4.0 ml of chloroform:methanol at a ratio of 2:1 (C-M). The mixture was shaken after the addition of 0.84 ml of water, and the organic layer was evaporated to dryness. The aqueous phase was extracted again with 4.0 ml of C-M and the organic layer added to the dried residue of the first extractant. After evaporation, the residue was taken up in 0.040 ml of toluene:chloroform (4:1) and 0.020 ml were spotted on a Silica Gel-G TLC plate, 250 u thickness.
# gerbils = test: Plasma lipoprotein effects in gerbils; format: in vivo, gerbil; conditions: for HDL-C, After Test / LDL-C plus VLDL-C, After Test / Total Cholesterol, After Test / HDL-C, Before Test / LDL-C plus VLDL-C, Before Test / Total Cholesterol, Before Test / HDL-C, Percent Change / LDL-C plus VLDL-C, Percent Change / Total Cholesterol, Percent Change: gerbil plasma; for HDL-C, Before Test / LDL-C plus VLDL-C, Before Test / Total Cholesterol, Before Test: baseline before dosing; for HDL-C, Percent Change / LDL-C plus VLDL-C, Percent Change / Total Cholesterol, Percent Change: p 0.05
# Protocol: Test compounds were suspended in 0.1% methylcellulose in isotonic saline at a concentration such that the desired dose was given in a volume of 4.0 ml/kg.
# On the day before initiation of the experiment and on the day before the last dose, food was removed from the gerbils in the early evening, and at 9 a.m. the next day the animals were bled by heart puncture (0.5 ml) after light ether anesthesia; the animals were dosed approximately 2 hours after bleeding on Day 0 and 2 hours before bleeding on the last dosing day. The blood sample was mixed with a solution of EDTA, 50 mg/ml at pH 7.4, so that the final concentration was 1.5 mg/ml. After swirling, the contents were centrifuged at 1500×g for 10 minutes at 5° C. The plasma was removed from the packed cells and a portion was analyzed for cholesterol utilizing the ABA-100 and A-GENT cholesterol reagent. To 0.100 ml of another portion of plasma was added 0.010 ml of Mg^+2 -phosphotungstate reagent (prepared daily by adding one part of MgCl2, 1.5 M, and 4 parts of sodium phosphotungstate, 4%, adjusted to pH 7.4 with 1.0 N NaOH. The mixture was vortexed and allowed to remain at room temperature for 5 minutes. The sample was centrifuged at 100,000×g for 5 minutes and an aliquot of supernatant analyzed for HDL cholesterol (HDL-C). The difference between total plasma cholesterol and HDL-C (after correction for dilution) was utilized as an estimate of low density plus very low density lipoprotein cholesterol (LDL-C plus VLDL-C). Animals were treated for 5 days in the first experiment and for 4 days in the second.
# Controls and test compounds were evaluated in groups of 12 gerbils. The significance of the changes in the plasma parameters was evaluated by a paired t-test; tests of hypothesis were performed at the 0.05 significance level.
# [3] = Solubility in the ACAT incubation medium with ethanol; format: physicochemical; conditions: 1% alcohol, 1.0×10^-4 M
# Protocol: The plate was developed in a hexane:diethyl ether:acetic acid solution (90:10:1) and the cholesterol oleate area was visualized with iodine vapor. The cholesterol oleate spot (Rf=0.70) was scraped from the plate and counted in Packard Scinto Liquid. Samples were run in triplicate, and percent inhibition was calculated utilizing controls with sample solvent only. Compounds were dissolved in ethanol, and the final concentration in the incubation medium was 1.0% in the first experiment and 2.5% in the second.
# [4] = 1% alcohol (first value of the pair)
# [5] = 2.5% alcohol (second value of the pair)
# [6] = 100 mg/kg, four days, no significant difference
# [7] = 100 mg/kg, five days, ± standard deviation
# [8] = 100 mg/kg, five days, significant difference
# [9] = 123 mg/kg, four days, significant difference
smiles,measurement,setting,value
CC(=O)[C@H]1CC[C@H]2[C@@H]3CCC4=CC(=O)CC[C@]4(C)[C@H]3CC[C@]12C [Progesterone],"ACAT inhibition, literature value of the reference standard",[1],60%
same,ACAT inhibition,[2]; [4],84%
same,ACAT inhibition,[2]; [5],74%
same,Cholesterol Oleate CPM + S.D.,[2]; 1%,891 ± 555 CPM
same,Cholesterol Oleate Inhibition Percent,[2]; 1%,65%
same,Cholesterol Oleate CPM + S.D.,[2]; 2.5%,453 ± 61 CPM
same,Cholesterol Oleate Inhibition Percent,[2]; 2.5%,66%
same,ACAT inhibition,[2]; at both alcohol concentrations (1% and 2.5%),65-66%
CCCCCCCCCCCCCCCCNc1ccc(C(=O)[O-])cc1.[Na+],"HDL-C, After Test","gerbils; 100 mg/kg, four days",45.1 ± 3.8 mg/dL
same,"LDL-C plus VLDL-C, After Test","gerbils; 100 mg/kg, four days",44.9 ± 10.6 mg/dL
same,"Total Cholesterol, After Test","gerbils; 100 mg/kg, four days",90.0 ± 11.7 mg/dL
same,"HDL-C, Before Test","gerbils; 100 mg/kg, four days",47.1 ± 13.4 mg/dL
same,"LDL-C plus VLDL-C, Before Test","gerbils; 100 mg/kg, four days",45.9 ± 15.3 mg/dL
same,"Total Cholesterol, Before Test","gerbils; 100 mg/kg, four days",93.0 ± 13.3 mg/dL
same,"HDL-C, Percent Change",gerbils; [6],-4%
same,"LDL-C plus VLDL-C, Percent Change",gerbils; [6],-2%
same,"Total Cholesterol, Percent Change",gerbils; [6],-3%
same,ACAT inhibition,[2]; [4],26%
same,ACAT inhibition,[2]; [5],45%
same,Cholesterol Oleate CPM + S.D.,[2]; 1%,1917 ± 33 CPM
same,Cholesterol Oleate Inhibition Percent,[2]; 1%,26%
same,Cholesterol Oleate CPM + S.D.,[2]; 2.5%,735 ± 187 CPM
same,Cholesterol Oleate Inhibition Percent,[2]; 2.5%,45%
same,solubility in incubation medium,[3],not completely soluble
"CCCCCCCCCCCCCCCCNc1c(Cl)cc(C(=O)O)cc1Cl [Compound B, Sodium (3,5-dichloro-4-hexadecylamino)benzoate]","HDL-C, Before Test",gerbils; [7],51.7 ± 11.1 mg/dL
same,"LDL-C plus VLDL-C, Before Test",gerbils; [7],44.8 ± 7.1 mg/dL
same,"Total Cholesterol, Before Test",gerbils; [7],96.6 ± 12.9 mg/dL
same,"HDL-C, After Test",gerbils; [7],42.0 ± 7.0 mg/dL
same,"LDL-C plus VLDL-C, After Test",gerbils; [7],35.8 ± 6.0 mg/dL
same,"Total Cholesterol, After Test",gerbils; [7],77.7 ± 12.3 mg/dL
same,"HDL-C, Percent Change",gerbils; [8],-19%
same,"LDL-C plus VLDL-C, Percent Change",gerbils; [8],-20%
same,"Total Cholesterol, Percent Change",gerbils; [8],-20%
same,"HDL-C, After Test","gerbils; 123 mg/kg, four days",48.8 ± 9.7 mg/dL
same,"LDL-C plus VLDL-C, After Test","gerbils; 123 mg/kg, four days",32.1 ± 8.8 mg/dL
same,"Total Cholesterol, After Test","gerbils; 123 mg/kg, four days",81.0 ± 10.2 mg/dL
same,"HDL-C, Before Test","gerbils; 123 mg/kg, four days",53.7 ± 9.9 mg/dL
same,"LDL-C plus VLDL-C, Before Test","gerbils; 123 mg/kg, four days",42.9 ± 16.8 mg/dL
same,"Total Cholesterol, Before Test","gerbils; 123 mg/kg, four days",96.6 ± 20.3 mg/dL
same,"HDL-C, Percent Change",gerbils; [9],-9%
same,"LDL-C plus VLDL-C, Percent Change",gerbils; [9],-25%
same,"Total Cholesterol, Percent Change",gerbils; [9],-10%
same,animal deaths in the group,"gerbils; gerbils, groups of 12, four days, 123 mg/kg",One animal died
